# Like-named read-outs stand apart in the source and are kept apart here. *1 amine or outer side, *2 acyl side, *3 side chain or, on linkers, in order; H or OH if unused. Where a SMILES comes first, the peptide text is derived from it. Bridges are numbered along the chain shown (N, C = ends). [ ]: non-standard residue; d: D form. The star is where a group is joined. hTyr(3S-OH,4S-OH,3'-OSO3H) = N[C@H](C(=O)O)[C@H](O)[C@@H](O)c1ccc(O)c(OS(=O)(=O)O)c1; Orn(4R-OH,5R-OH) = O=C([C@H](C[C@@H](O)[C@@H](O)N[*:3])N[*:1])[*:2]; Pro(3S-OH,4S-Me) = C[C@H]1CN[C@H](C(=O)O)[C@H]1O; X1 = CCCCCOc1ccc(-c2cc(-c3ccc(C(=O)*)cc3)no2)cc1; Gln(3R-OH) = NC(=O)C[C@@H](O)[C@H](N)C(=O)O; Hyp = O=C(O)[C@@H]1C[C@@H](O)CN1
# Experiments:
# F. solani isolate [1] = assay: Antifungal susceptibility testing; format: cell-based, F. solani complex; details: Fusarium solani
# CYP2C19 = details: compared to ilaprazole and pantoprazole; cited from earlier work
# [2] = cited from earlier work
# Fusarium spp. = details: cited from earlier work
# [3] = cited from earlier work; remark: listed apart in the source
# F. solani isolate [4] = assay: In vitro synergy testing of the voriconazole and micafungin combination; format: cell-based, F. solani complex; details: tested at University of Texas Health Science Center in San Antonio
structure (smiles),measurement,setting,value
CC[C@@H]([C@H](C)O)n1ncn(-c2ccc(N3CCN(c4ccc(OC[C@@H]5CO[C@@](Cn6cncn6)(c6ccc(F)cc6F)C5)cc4)CC3)cc2)c1=O [posaconazole],MIC,F. solani isolate [1],> 16 µg/mL
C[C@@H](c1nc(-c2ccc(C#N)cc2)cs1)[C@](O)(Cn1cncn1)c1cc(F)ccc1F [isavuconazole],MIC,F. solani isolate [1],> 16 µg/mL
C[C@@H]1[C@H](O)[C@@H](C)/C=C/C=C/C=C/C=C/C=C/C=C/C=C/[C@H](O[C@@H]2O[C@H](C)[C@@H](O)[C@H](N)[C@@H]2O)C[C@@H]2O[C@](O)(C[C@@H](O)C[C@@H](O)[C@H](O)CC[C@@H](O)C[C@@H](O)CC(=O)O[C@H]1C)C[C@H](O)[C@H]2C(=O)O [amphotericin B],MIC,F. solani isolate [1],8 µg/mL
COc1ccc2nc([S@@+]([O-])Cc3ncc(C)c(OC)c3C)[nH]c2c1 [esomeprazole],CYP2C19 inhibitory effect,CYP2C19,more potent inhibitory effects
C[C@@H](c1ncncc1F)[C@](O)(Cn1cncn1)c1ccc(F)cc1F [voriconazole],Increase of voriconazole AUC,"[2]; healthy subjects, with cimetidine 400 mg PO q12h",23%
same,Increase of voriconazole AUC,"[2]; healthy volunteers, with omeprazole 40 mg PO q24h",40%
same,MIC50,Fusarium spp.,8 µg/mL
same,Repeat imaging of metastatic sites of proven or suspected infection,F. solani complex; 6 months after initiation of voriconazole therapy,significant interval improvement or resolution of all metastatic sites
same,"Voriconazole-related toxicity (e.g., hepatotoxicity, neurotoxicity)","F. solani complex; ~10.7 mg/kg/dose PO q8h for several months, troughs 4 to 6 mcg/mL",without any evidence of voriconazole-related toxicity
same,MIC,F. solani isolate [1],4 µg/mL
CN/C(=N/CCSCc1nc[nH]c1C)NC#N [cimetidine],Toxicity,[3],central nervous system effects and anti-androgenic side effects
Cc1c(OCC(F)(F)F)ccnc1C[S+]([O-])c1nc2ccccc2[nH]1 (stereo not shown) [lansoprazole],CYP2C19 inhibitory effect,CYP2C19,more potent inhibitory effects
COc1ccc2[nH]c([S+]([O-])Cc3ncc(C)c(OC)c3C)nc2c1 (stereo not shown) [omeprazole],Omeprazole AUC with voriconazole compared to absence of co-administration,[2]; voriconazole co-administration,4 times higher
same,Omeprazole Cmax with voriconazole compared to absence of co-administration,[2]; voriconazole co-administration,2 times higher
same,CYP2C19 inhibitory effect,CYP2C19,more potent inhibitory effects
"CCCCCOc1ccc(-c2cc(-c3ccc(C(=O)N[C@H]4C[C@@H](O)[C@@H](O)NC(=O)[C@@H]5[C@@H](O)[C@@H](C)CN5C(=O)[C@H]([C@H](O)CC(N)=O)NC(=O)[C@H]([C@H](O)[C@@H](O)c5ccc(O)c(OS(=O)(=O)O)c5)NC(=O)[C@@H]5C[C@@H](O)CN5C(=O)[C@H]([C@@H](C)O)NC4=O)cc3)no2)cc1 [micafungin] (X1-[Orn(4R-OH,5R-OH)]T[Hyp][hTyr(3S-OH,4S-OH,3'-OSO3H)][Gln(3R-OH)][Pro(3S-OH,4S-Me)]; lactam 1-C)",Synergy of combination,F. solani isolate [4],did not reveal synergy

# From PMC10198811 (The Pediatric infectious disease journal, 2023)
